Experimental data published in paper PMC3684443 (ACS chemical biology, 2012).

Key:
[1] = system: HNSCC; details: cited from earlier work
[2] = system: HNSCC cell line 1483 xenograft tumors; test: Antitumor effect in HNSCC xenograft model, tumor volume; format: in vivo, Athymic nude mice; details: 2 weeks treatment, comparison between the three treated groups

Question: What does the source list for `C#Cc1cccc(Nc2ncnc3cc(OCCOC)c(OCCOC)cc23)c1` [erlotinib]?
Answer: Clinical response rate ([1]; HNSCC and NSCLC patients): 4%; Disease stabilization ([1]; phase II trial, for 16 weeks): 38%; Response rate ([1]; phase II trial): 4%; Response among erlotinib, cetuximab and EGFRAS-GPNA groups [2]: no significant difference
